From patent US5210193A, “Piperazine derivatives” (American Cyanamid Company, priority 1990, dated 1993)
Values after ≈ are worked out from the molar mass of the structure shown.

Columns and labels:
Test in all cases: in vitro antibacterial MIC, agar plate dilution
Format in all cases: cell-based
[1] = tested on: Enterobacter aerogenes VGH 84-36; conditions: Klebsiella aerogenes, VGH8436, 18 hours, 35° C., read-out: MIC
Summary of the method: (§1)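 Minimal inhibitory concentrations came from agar plate dilution in Mueller-Hinton medium. Each organism was delivered at roughly 10^4 CFU by Steers replicator. Plates were read for visible growth after 18 hours at 35° C, values in mcg/ml.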

[2] = tested on: Enterobacter cloacae K 84-10; conditions: Enterobacter cloacae, K8410, 18 h, 35° C., read-out: MIC
Summary of the method: as §1

[3] = tested on: Enterobacter cloacae VGH 84-37; conditions: Enterobacter cloacae, VGH8437, 18 h, 35° C., read-out: MIC
Summary of the method: as §1

[4] = tested on: Escherichia coli ATCC 25922; conditions: Escherichia coli, ATCC25922, 18 h, 35° C., read-out: MIC
Summary of the method: as §1

[5] = tested on: Escherichia coli CMC 84-11; conditions: Escherichia coli, CMC8411, 18 h, 35° C., read-out: MIC
Summary of the method: as §1

[6] = tested on: Escherichia coli CMC 84-16; conditions: Escherichia coli, CMC8416, 18 h, 35° C., read-out: MIC
Summary of the method: as §1

Escherichia coli NAR 311 = conditions: NAR311, 18 hours, 35° C., read-out: MIC
Summary of the method: as §1

[7] = tested on: Escherichia coli PRNT 311; conditions: PRNT311, 18 hours, 35° C., read-out: MIC
Summary of the method: as §1

[8] = tested on: Klebsiella oxytoca MOR 84-28; conditions: MOR8428, 18 hours, 35° C.
Summary of the method: as §1

Klebsiella pneumoniae AD = conditions: Klebsiella pneumoniae, 18 h, 35° C., read-out: MIC
Summary of the method: as §1

[9] = tested on: Klebsiella pneumoniae MOR 84-4; conditions: Klebsiella pneumoniae, MOR844, 18 h, 35° C., read-out: MIC
Summary of the method: as §1

[10] = tested on: Morganella morganii CMC 84-37; conditions: Morganella morganii, CMC8437, 18 h, 35° C., read-out: MIC
Summary of the method: as §1

[11] = tested on: Morganella morganii VGH 84-11; conditions: VGH8411, 18 hours, 35° C., read-out: MIC
Summary of the method: as §1

[12] = tested on: Proteus rettgeri CMC 84-41; conditions: Providencia rettgeri, CMC8441, 18 h, 35° C., read-out: MIC
Summary of the method: as §1

[13] = tested on: Pseudomonas aeruginosa LL-1244; conditions: Pseudomonas aeruginosa, LL1244, 18 h, 35° C., read-out: MIC
Summary of the method: as §1

[14] = tested on: Pseudomonas aeruginosa VGH 84-4; conditions: Pseudomonas aeruginosa, VGH844, 18 h, 35° C., read-out: MIC
Summary of the method: as §1

[15] = tested on: Serratia marcescens F 0-35; conditions: Serratia marcescens, F035, 18 h, 35° C., read-out: MIC
Summary of the method: as §1

[16] = tested on: Serratia marcescens K 84-18; conditions: Serratia marcescens, K8418, 18 h, 35° C., read-out: MIC
Summary of the method: as §1

[17] = tested on: Staphylococcus Spp saprophiticus VGH 84-50; conditions: 18 hours, 35° C., read-out: MIC
Summary of the method: as §1

[18] = tested on: Staphylococcus aureus ATCC 25913; conditions: ATCC25913, 18 hours, 35° C.
Summary of the method: as §1

[19] = tested on: Staphylococcus aureus ATTC 29213; conditions: Staphylococcus aureus, ATTC29213, 18 h, 35° C., read-out: MIC
Summary of the method: as §1

[20] = tested on: Staphylococcus aureus CMC 83-127; conditions: Staphylococcus aureus, CMC83127, 18 h, 35° C., read-out: MIC
Summary of the method: as §1

[21] = tested on: Staphylococcus aureus CMC 83-128; conditions: CMC83128, 18 hours, 35° C., read-out: MIC
Summary of the method: as §1

[22] = tested on: Staphylococcus aureus Smith; conditions: Staphylococcus aureus, 18 h, 35° C., read-out: MIC
Summary of the method: as §1

[23] = tested on: Staphylococcus aureus VGH 84-45; conditions: Staphylococcus aureus, VGH8445, 18 h, 35° C., read-out: MIC
Summary of the method: as §1

[24] = tested on: Staphylococcus aureus VGH 84-46; conditions: Staphylococcus aureus, VGH8446, 18 h, 35° C., read-out: MIC
Summary of the method: as §1

[25] = tested on: Staphylococcus epidermidis CMC 83-135; conditions: CMC83135, 18 hours, 35° C., read-out: MIC
Summary of the method: as §1

[26] = tested on: Staphylococcus epidermidis IO 83-58; conditions: IO8358, 18 hours, 35° C., read-out: MIC
Summary of the method: as §1

[27] = tested on: Staphylococcus epidermidis VGH 84-40; conditions: VGH8440, 18 hours, 35° C., read-out: MIC
Summary of the method: as §1

[28] = tested on: Streptococcus faecalis ATTC 29212; conditions: Enterococcus faecalis, ATTC29212, 18 hours, 35° C., read-out: MIC
Summary of the method: as §1

[29] = tested on: Streptococcus faecalis VGH 84-65; conditions: Enterococcus faecalis, VGH8465, 18 h, 35° C., read-out: MIC
Summary of the method: as §1

| Compound | MIC [1] | MIC [2] | MIC [3] | MIC [4] | MIC [5] | MIC [6] | MIC (Escherichia coli NAR 311) | MIC [7] | MIC [8] | MIC (Klebsiella pneumoniae AD) | MIC [9] | MIC [10] | MIC [11] | MIC [12] | MIC [13] | MIC [14] | MIC [15] | MIC [16] | MIC [17] | MIC [19] | also measured |
| --- | --- | --- | --- | --- | --- | --- | --- | --- | --- | --- | --- | --- | --- | --- | --- | --- | --- | --- | --- | --- | --- |
| CCn1cc(C(=O)O)c(=O)c2cc(F)c(N3CCNC(c4sc5ccccc5c4C)C3)cc21 (stereo not shown) [Example 22, 1-Ethyl-6-fluoro-1,4-dihydro-7-[3-(3-methylbenzo[b]-thien-2-yl)-1-piperazinyl]-4-oxo-3-quinolinecarboxylic acid] | > 256 µg/mL | > 256 µg/mL | > 256 µg/mL | > 256 µg/mL | > 256 µg/mL | > 256 µg/mL | > 256 µg/mL | > 256 µg/mL | > 256 µg/mL | > 256 µg/mL | > 256 µg/mL | 256 µg/mL (≈ 550 µM) | 256 µg/mL (≈ 550 µM) | 256 µg/mL (≈ 550 µM) | > 256 µg/mL | > 256 µg/mL | > 256 µg/mL | > 256 µg/mL | 32 µg/mL (≈ 68.7 µM) | 4 µg/mL (≈ 8.59 µM) | MIC [18]: 4 µg/mL (≈ 8.59 µM); MIC [20]: 0.5 µg/mL (≈ 1.07 µM); MIC [21]: 4 µg/mL (≈ 8.59 µM); MIC [22]: 2 µg/mL (≈ 4.3 µM); MIC [23]: 2 µg/mL (≈ 4.3 µM); MIC [24]: 2 µg/mL (≈ 4.3 µM); MIC [25]: 2 µg/mL (≈ 4.3 µM); MIC [26]: 8 µg/mL (≈ 17.2 µM); MIC [27]: 0.5 µg/mL (≈ 1.07 µM); MIC [28]: 256 µg/mL (≈ 550 µM); MIC [29]: 256 µg/mL (≈ 550 µM) |
| CCCCCCOCC1CN(c2cc3c(cc2F)c(=O)c(C(=O)O)cn3CC)CCN1 (stereo not shown) [Example 77, 1-Ethyl-6-fluoro-7-[3-[(hexyloxy)methyl]-1-piperazinyl]-1,4-dihydro-4-oxo-3-quinolinecarboxylic acid] | 4 µg/mL (≈ 9.23 µM) | 4 µg/mL (≈ 9.23 µM) | 4 µg/mL (≈ 9.23 µM) | 2 µg/mL (≈ 4.61 µM) | 2 µg/mL (≈ 4.61 µM) | 2 µg/mL (≈ 4.61 µM) | 32 µg/mL (≈ 73.8 µM) | 2 µg/mL (≈ 4.61 µM) | 8 µg/mL (≈ 18.5 µM) | 4 µg/mL (≈ 9.23 µM) | 4 µg/mL (≈ 9.23 µM) | 4 µg/mL (≈ 9.23 µM) | 4 µg/mL (≈ 9.23 µM) | 8 µg/mL (≈ 18.5 µM) | > 256 µg/mL | 128 µg/mL (≈ 295 µM) | 8 µg/mL (≈ 18.5 µM) | 16 µg/mL (≈ 36.9 µM) | 2 µg/mL (≈ 4.61 µM) | 1 µg/mL (≈ 2.31 µM) | MIC [20]: 0.25 µg/mL (≈ 0.577 µM); MIC [21]: 0.5 µg/mL (≈ 1.15 µM); MIC [22]: 2 µg/mL (≈ 4.61 µM); MIC [23]: 0.5 µg/mL (≈ 1.15 µM); MIC [24]: 0.5 µg/mL (≈ 1.15 µM); MIC [25]: 1 µg/mL (≈ 2.31 µM); MIC [26]: 1 µg/mL (≈ 2.31 µM); MIC [27]: 0.25 µg/mL (≈ 0.577 µM); MIC [28]: 8 µg/mL (≈ 18.5 µM); MIC [29]: 8 µg/mL (≈ 18.5 µM) |
| CCCCCCCCCCCCOCC1CN(c2cc3c(cc2F)c(=O)c(C(=O)O)cn3CC)CCN1 (stereo not shown) [Example 74, 7-[3-[(Dodecyloxy)methyl]-1-piperazinyl]-1-ethyl-6-fluoro-1,4-dihydro-4-oxo-3-quinolinecarboxylic acid] | > 256 µg/mL | > 256 µg/mL | > 256 µg/mL | > 256 µg/mL | > 256 µg/mL | > 256 µg/mL | > 256 µg/mL | > 256 µg/mL | > 256 µg/mL | > 256 µg/mL | > 256 µg/mL | > 256 µg/mL | > 256 µg/mL | > 256 µg/mL | > 256 µg/mL | > 256 µg/mL | > 256 µg/mL | > 256 µg/mL | 64 µg/mL (≈ 124 µM) | 128 µg/mL (≈ 247 µM) | MIC [20]: 32 µg/mL (≈ 61.8 µM); MIC [21]: 128 µg/mL (≈ 247 µM); MIC [22]: 128 µg/mL (≈ 247 µM); MIC [23]: 128 µg/mL (≈ 247 µM); MIC [24]: 128 µg/mL (≈ 247 µM); MIC [25]: 128 µg/mL (≈ 247 µM); MIC [26]: 128 µg/mL (≈ 247 µM); MIC [27]: 64 µg/mL (≈ 124 µM); MIC [28]: 128 µg/mL (≈ 247 µM); MIC [29]: 128 µg/mL (≈ 247 µM) |
